Legend:
[1] = target: T1, GST-tagged recombinant human TYRO3 kinase domain (Homo sapiens, UniProt Q06418); test: TYRO3 Enzyme Assay (LanthaScreen Eu Kinase Binding); details: averaged IC50; TYRO3 5 nM; 60-minute incubation at 22° C.; TR-FRET
T1 construct: GST-tagged recombinant human TYRO3 kinase domain; purchased Carna PR7480A
T1 sequence (Q06418 518-790 limits assumed): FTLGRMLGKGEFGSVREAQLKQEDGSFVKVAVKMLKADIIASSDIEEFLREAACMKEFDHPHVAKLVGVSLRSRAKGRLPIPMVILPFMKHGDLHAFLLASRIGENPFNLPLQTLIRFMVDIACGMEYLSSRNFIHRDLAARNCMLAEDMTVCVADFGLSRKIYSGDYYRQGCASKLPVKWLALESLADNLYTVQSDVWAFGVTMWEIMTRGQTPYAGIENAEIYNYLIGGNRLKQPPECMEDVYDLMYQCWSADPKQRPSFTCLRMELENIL
Protocol: Compounds disclosed herein were screened for their ability to inhibit TYRO3 kinase using Invitrogen's LanthaScreenTM Eu Kinase Binding technology. GST-tagged recombinant human TYRO3 kinase domain from Carna (5 nM; Cat. No. P[…]) was incubated with 20 nM Alexa-Fluor® Tracer 236 (P[…]) and 2 nM Europium-anti-GST (Cat. No. A15116) along with test compound in a buffer consisting of 25 mM HEPES, pH 7.4, 10 mM MgCl2, 0.01% Triton X-100, and 2% DMSO. Compounds are typically prepared in a threefold serial dilution in DMSO and added to the assay to give the appropriate final concentration. After a 60-minute incubation at 22° C., the reaction was measured using a PerkinElmer EnVision multimode plate reader via TR-FRET dual wavelength detection, and the percent of control (POC) calculated using a ratiometric emission factor. […] The POC values were fit to a 4 parameter logistic curve and the IC50 value is point where the curve crosses 50 POC.

[2] = target: T2, MET (wt) GST-tagged recombinant human MET kinase domain (Homo sapiens, UniProt P08581); test: c-Met Enzyme Assay, wild type (LanthaScreen Eu Kinase Binding); details: averaged IC50; MET (wt) 10 nM; 60-minute incubation at 22° C.; read-out: SigChem WT IC50
T2 construct: GST-tagged recombinant human MET kinase domain; purchased Signal Chem
T2 sequence (P08581 1078-1345 limits assumed): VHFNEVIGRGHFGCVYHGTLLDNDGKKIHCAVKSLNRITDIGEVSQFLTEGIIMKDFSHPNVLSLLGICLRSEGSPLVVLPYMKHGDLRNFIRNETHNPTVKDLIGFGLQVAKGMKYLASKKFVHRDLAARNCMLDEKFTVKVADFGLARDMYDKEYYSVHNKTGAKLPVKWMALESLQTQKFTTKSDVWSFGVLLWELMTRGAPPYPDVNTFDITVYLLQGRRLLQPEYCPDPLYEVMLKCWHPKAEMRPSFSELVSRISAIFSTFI
Protocol: (§1) The affinity of compound binding to wild type and mutant human MET kinases was measured using Invitrogen's LanthaScreen™ Eu Kinase Binding technology. Briefly, GST-tagged recombinant human MET kinase domain from Signal Chem (see Table 8 below for concentration in assay) was incubated with 50 nM Alexa-Fluor® Tracer 236 (Invitrogen Cat No. PR9078A) and 2 nM Europium-anti-GST (Invitrogen Cat. No. A15116) along with test compound in a buffer consisting of 25 mM HEPES, pH 7.4, 10 mM MgCl2, 0.01% Triton X-100, 1mM DTT, and 2% DMSO. Compounds were typically prepared in a three-fold serial dilution in DMSO and added to the assay to give the appropriate final concentration. After a 60-minute incubation at 22° C., the reaction was measured using a PerkinElmer EnVision multimode plate reader via TR-FRET dual wavelength detection, and the percent of control (POC) calculated using a ratiometric emission factor. […] The POC values were fit to a 4 parameter logistic curve and the IC50 value is point where the curve crosses 50 POC.

[3] = target: T3, human MET kinase del Ex14 (Homo sapiens, UniProt P08581, DEL963-1009); test: c-Met Enzyme Assay, del Ex14 mutant; assay type: binding; details: averaged IC50; del Ex14 5 nM; 60-minute incubation at 22° C.; read-out: Del14 IC50
T3 construct: GST-tagged recombinant human MET kinase domain; purchased Signal Chem
T3 sequence (P08581 with tags, fused parts or gaps DEL963-1009 limits assumed): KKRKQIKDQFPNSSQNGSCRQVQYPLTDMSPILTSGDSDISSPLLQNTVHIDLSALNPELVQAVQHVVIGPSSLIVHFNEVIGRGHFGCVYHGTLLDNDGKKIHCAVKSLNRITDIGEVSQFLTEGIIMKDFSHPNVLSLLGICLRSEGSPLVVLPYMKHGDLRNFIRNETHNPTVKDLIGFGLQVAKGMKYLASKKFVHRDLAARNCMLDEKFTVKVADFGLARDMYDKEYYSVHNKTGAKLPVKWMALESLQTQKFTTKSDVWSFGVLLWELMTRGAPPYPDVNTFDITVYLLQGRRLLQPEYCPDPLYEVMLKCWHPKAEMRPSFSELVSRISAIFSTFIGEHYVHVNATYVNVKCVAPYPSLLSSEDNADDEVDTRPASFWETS
Protocol: as §1

human MET kinase F1200I = target: T4, human MET kinase F1200I (Homo sapiens, UniProt P08581, F1200I); test: c-Met Enzyme Assay, F1200I mutant; assay type: binding; details: averaged IC50; F1200I 2 nM; 60-minute incubation at 22° C.
T4 construct: GST-tagged recombinant human MET kinase domain; purchased Signal Chem
T4 sequence (P08581 1078-1345 F1200I limits assumed): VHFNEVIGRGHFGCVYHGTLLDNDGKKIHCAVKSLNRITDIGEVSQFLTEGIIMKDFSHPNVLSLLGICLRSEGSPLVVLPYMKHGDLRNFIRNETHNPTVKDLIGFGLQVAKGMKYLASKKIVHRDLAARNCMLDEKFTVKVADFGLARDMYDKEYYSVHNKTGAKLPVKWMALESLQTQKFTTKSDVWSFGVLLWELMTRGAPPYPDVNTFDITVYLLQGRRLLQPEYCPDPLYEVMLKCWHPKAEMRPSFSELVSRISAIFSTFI
Protocol: as §1

human MET kinase L1195V = target: T5, human MET kinase L1195V (Homo sapiens, UniProt P08581, L1195V); test: c-Met Enzyme Assay, L1195V mutant; assay type: binding; details: averaged IC50; L1195V 10 nM; 60-minute incubation at 22° C.
T5 construct: GST-tagged recombinant human MET kinase domain; purchased Signal Chem
T5 sequence (P08581 1078-1345 L1195V limits assumed): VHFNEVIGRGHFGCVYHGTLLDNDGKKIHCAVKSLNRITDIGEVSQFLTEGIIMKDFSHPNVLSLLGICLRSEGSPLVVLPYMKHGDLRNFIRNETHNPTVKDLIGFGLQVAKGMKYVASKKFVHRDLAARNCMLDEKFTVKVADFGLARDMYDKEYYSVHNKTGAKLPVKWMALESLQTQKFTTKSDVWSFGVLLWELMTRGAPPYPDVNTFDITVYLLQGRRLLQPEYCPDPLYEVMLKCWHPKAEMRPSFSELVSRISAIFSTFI
Protocol: as §1

Row | IC50 [1] | IC50 [2] | IC50 [3] | IC50 (human MET kinase F1200I) | IC50 (human MET kinase L1195V) | Compound
1 | 23 nM | 5.4 nM | 5.6 nM | 7 nM | 33 nM | COc1cc2nccc(Oc3ccc(NC(=O)c4cn(C5CCOCC5)cc(-c5ccc(F)cc5)c4=O)nc3)c2cc1OC [Example 12, N-(5((6,7-dimethoxyquinolin-4-yl)oxy)pyridin-2-yl)-5-(4-fluorophenyl)-4-oxo-1-(tetrahydro-2H-pyran-4-yl)-1,4-dihydropyridine-3-carboxamide]
2 | 4 nM | 1.8 nM | 1.9 nM | 2.8 nM | 10 nM | COc1cc2nccc(Oc3ccc(NC(=O)c4cn(C(C)C)cc(-c5ccc(F)cc5C)c4=O)nc3)c2cc1OC [Example 19, N-(5-((6,7-dimethoxyquinolin-4yl)oxy)pyridin-2-yl)-5-(4-fluoro-2-methylphenyl)-1-isopropyl-4-oxo-1,4-dihydropyridine-3-carboxamide]
3 | 5 nM | 2.4 nM | 2.6 nM | 2.5 nM | 7.1 nM | COc1cc2nccc(Oc3ccc(NC(=O)c4cn(C(C)C)cc(-c5ccc(F)cc5)c4=O)nc3)c2cc1OC [Example 1]
4 | 18 nM | 14.7 nM | 10.3 nM | 20.1 nM | 73.6 nM | CCOc1ccc2c(Oc3ccc(NC(=O)c4cn(C(C)C)cc(-c5ccc(F)cc5)c4=O)nc3)ccnc2c1 [Example 52, N-(5-((7-ethoxyquinolin-4-yl)oxy)pyridin-2-yl)-5-(4-fluorophenyl)-1-isopropyl-4-oxo-1,4-dihydropyridine-3-carboxamide]
5 | 10 nM | 3.9 nM | 4.9 nM | 4.6 nM | 20.2 nM | COc1ccc2nccc(Oc3ccc(NC(=O)c4cn(C(C)C)c(C)c(-c5ccc(F)cc5)c4=O)nc3)c2c1 [Example 33, 5-(4-fluorophenyl)-1-isopropyl-N-(5-((6-methoxyquinolin-4-yl)oxy)pyridin-2-yl)-6-methyl-4-oxo-1,4-dihydropyridine-3-carboxamide]
6 | 4 nM | 2.2 nM | 2.1 nM | 4.2 nM | 18.9 nM | COc1cc2nccc(Oc3ccc(NC(=O)c4cn(CCN(C)C)cc(-c5ccc(F)cc5F)c4=O)nc3)c2cc1OC [Example 44, 5-(2,4-difluorophenyl)-N-(5-((6,7-dimethoxyquinolin-4-yl)oxy)pyridin-2-yl)-1-(2-(dimethylamino)ethyl)-4-oxo-1,4-dihydropyridine-3-carboxamide]
7 | 9 nM | 3 nM | 3.2 nM | 4.2 nM | 44.8 nM | COc1cc2nccc(Oc3ccc(NC(=O)c4cn(C(C)C)cc(-c5ccc(F)cc5OC)c4=O)nc3)c2cc1OC [Example 32, N-(5-((6,7-dimethoxyquinolin-4yl)oxy)pyridin-2-yl)-5-(4-fluoro-2-methoxyphenyl)-1-isopropyl-4-oxo-1,4-dihydropyridine-3-carboxamide]
8 | 76 nM | 17.8 nM | 17.1 nM | 23.4 nM | 82.6 nM | CCCC(CCC)n1cc(C(=O)Nc2ccc(Oc3ccnc4cc(OC)c(OC)cc34)cn2)c(=O)c(-c2ccc(F)cc2F)c1 [Example 17, 5-(2,4-difluorophenyl)-N-(5-((6,7-dimethoxyquinolin-4yl)oxy)pyridin-2-yl)-1-(heptan-4-yl)-4-oxo-1,4-dihydropyridine-3-carboxamide]
9 | 6 nM | 6.4 nM | 5.3 nM | 6.8 nM | 87.1 nM | COc1cc2nccc(Oc3ccc(NC(=O)c4cn(C)cc(-c5ccc(F)cc5)c4=O)nc3)c2cc1OC [Example 2]
10 | 54 nM | 7.8 nM | 10.5 nM | 11.2 nM | 92 nM | COc1cc2nccc(Oc3ccc(NC(=O)c4cn(CC(=O)N(C)C)cc(-c5ccc(F)c(F)c5)c4=O)nc3)c2cc1OC [Example 24, 5-(3,4-difluorophenyl)-N-(5-((6,7-dimethoxyquinolin-4-yl)oxy)pyridin-2-yl)-1-(2-(dimethylamino)-2-oxoethyl)-4-oxo-1,4-dihydropyridine-3-carboxamide]
11 | 7 nM | 3.1 nM | 2.6 nM | 3.7 nM | 7.3 nM | COCCn1cc(C(=O)Nc2ccc(Oc3ccnc4cc(OC)c(OC)cc34)cn2)c(=O)c(-c2ccc(F)cc2)c1 [Example 7, N-(5((6,7-dimethoxyquinolin-4-yl)oxy)pyridin-2-yl)-5-(4-fluorophenyl)-1-(2-methoxyethyl)-4-oxo-1,4-dihydropyridine-3-carboxamide]
12 | 83 nM | 29.4 nM | 25.6 nM | 31.6 nM | 508 nM | CCn1cc(C(=O)Nc2ccc(Oc3ccnc4ccc(OC)cc34)cn2)c(=O)c(-c2ccc(F)cc2)c1 [Example 39, 1-ethyl-5-(4-fluorophenyl)-N-(5-((6-methoxyquinolin-4-yl)oxy)pyridin-2-yl)-4-oxo-1,4-dihydropyridine-3-carboxamide]
13 | 14 nM | 4 nM | 5.7 nM | 7.4 nM | 11.2 nM | COc1cc2nccc(Oc3ccc(NC(=O)c4cn(CCC(C)C)cc(-c5ccc(F)cc5)c4=O)nc3)c2cc1OC [Example 34, N-(5-((6,7-dimethoxyquinolin-4yl)oxy)pyridin-2-yl)-5-(4-fluorophenyl)-1-isopentyl-4-oxo-1,4-dihydropyridine-3-carboxamide]
14 | 13 nM | 2.9 nM | 5.6 nM | 6.4 nM | 47.7 nM | COc1cc2nccc(Oc3ccc(NC(=O)c4cn(CC(C)(C)O)cc(-c5ccc(F)cc5)c4=O)nc3)c2cc1OC [Example 9, N-(5-((6,7-dimethoxyquinolin-4-yl)oxy)pyridin-2-yl)-5-(4-fluorophenyl)-1-(2-hydroxy-2-methylpropyl)-4-oxo-1,4-dihydropyridine-3-carboxamide]
15 | 129 nM | 7.7 nM | 15.9 nM | 12.4 nM | 187 nM | COc1cc2nccc(Oc3ccc(NC(=O)c4cn(CC(=O)N5CCCC5)cc(-c5ccc(F)cc5F)c4=O)nc3)c2cc1OC [Example 14]
16 | 7 nM | 2 nM | 1.9 nM | 2.4 nM | 4 nM | COc1cc2nccc(Oc3ccc(NC(=O)c4cn(C(C)C)c(C)c(-c5ccc(F)c(F)c5)c4=O)nc3)c2cc1OC [Example 28, 5-(3,4-difluorophenyl)-N-(5-((6,7-dimethoxyquinolin-4yl)oxy)pyridin-2-yl)-1-isopropyl-6-methyl-4-oxo-1,4-dihydropyridine-3-carboxamide]
17 | 8 nM | 2.8 nM | 3.1 nM | 3.4 nM | 5.1 nM | COc1cc2nccc(Oc3cnc(NC(=O)c4cn(C(C)C)c(C)c(-c5ccc(F)cc5)c4=O)nc3)c2cc1OC [Example 55, N-(5-((6,7-dimethoxyquinolin-4-yl)oxy)pyrimidin-2-yl)-5-(4-fluorophenyl)-1-isopropyl-6-methyl-4-oxo-1,4-dihydropyridine-3-carboxamide]
18 | 5 nM | 2.1 nM | 1.7 nM | 3 nM | 21.9 nM | COc1cc2nccc(Oc3ccc(NC(=O)c4cn(C(C)C)cc(-c5ccc(F)cc5F)c4=O)nc3)c2cc1OC [Example 4]
19 | 54 nM | 8.2 nM | 9.5 nM | 11.5 nM | 18.7 nM | COc1cc2nccc(Oc3ccc(NC(=O)c4cn(CC(=O)N(C)C)cc(-c5ccc(Cl)cc5)c4=O)nc3)c2cc1OC [Example 25]
